In general, IC50 refers to the concentration at which inhibition is half-maximal. A low value points to inhibition by little substance.

Each structure is given as a SMILES string.

In the first assay the target is T1, human CXCR3 (N-delta 4) (Homo sapiens, UniProt P49682).
T1 construct: CD8 leader (N); Flag tag; expressed in transfected cells; membranes
T1 sequence (P49682 5-368 limits assumed): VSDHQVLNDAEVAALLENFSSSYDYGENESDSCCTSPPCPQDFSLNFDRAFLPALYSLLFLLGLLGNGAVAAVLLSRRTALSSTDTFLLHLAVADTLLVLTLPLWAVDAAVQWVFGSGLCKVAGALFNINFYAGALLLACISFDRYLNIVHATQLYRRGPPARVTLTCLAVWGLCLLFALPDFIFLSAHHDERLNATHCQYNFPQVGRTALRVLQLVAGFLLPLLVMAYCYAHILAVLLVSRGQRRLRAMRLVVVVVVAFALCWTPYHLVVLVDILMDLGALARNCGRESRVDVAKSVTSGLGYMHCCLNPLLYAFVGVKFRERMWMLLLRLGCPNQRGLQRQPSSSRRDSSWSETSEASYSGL
The experiment in a line: Human CXCR3 (N-delta 4) Scintillation Proximity Assay (SPA), [125I] IP-10 binding. Particulars: IC50 rating; [125I] IP-10 displacement, Ba/F3-hCXCR3 (N-delta 4) membranes. From the text: The inventive compounds can readily be evaluated to determine activity at The CXCR3 receptors by known methods, such as, for example, Development of Human CXCR3 (N-delta 4) Binding Assay.
Cloning and Expression of Human CXCR3 (N-Delta 4):
The DNA encoding human CXCR3 was cloned by PCR using human genomic DNA (Promega, Madison, Wis.) as a template. The PCR primers were designed based on the published sequence of human orphan receptor GPR9 (1) with incorporated restriction sites, a Kozak consensus sequence, CD8 leader and Flag tag. The PCR product was subcloned into the mammalian expression vector pME18Sneo, a derivative of the SR-alpha expression vector (designated as pME18Sneo-hCXCR3 (N-delta 4).
IL-3-dependent mouse pro-B cells Ba/F3 were transfected by electroporation in 0.4 ml Dulbecco's PBS containing 4×10^6 cells with 20 μg of pME18Sneo-hCXCR3 (N-delta 4) plasmid DNA. Cells were pulsed at 400 Volts, 100 OHMs, 960 μFd. The transfected cells were under selection with 1 mg/ml G418 (Life Technologies, Gaithersburg, Md.). G418-resistant Ba/F3 clones were screened for CXCR3 expression by specific binding of [^125I] IP-10 (NEN Life Science Products, Boston, Mass.).
Preparation of Ba/F3-hCXCR3 (N-Delta 4) Membranes
Ba/F3 cells expressing human CXCR3 (N-delta 4) were pelleted and resuspended in the lysis buffer containing 10 mM HEPES, pH 7.5 and Complete® protease inhibitors (1 tablet per 100 ml) (Boehringer Mannheim, Indianapolis, Ind.) at a cell density of 20×10^6 cells per ml. After 5 minutes incubation on ice, cells were transferred to 4639 cell disruption bomb (Parr Instrument, Moline, Ill.) and applied with 1,500 psi of nitrogen for 30 minutes on ice. Large cellular debris was removed by centrifugation at 1,000× g. Cell membrane in the supernatant was sedimented at 100,000× g. The membrane was resuspended in the lysis buffer supplemented with 10% sucrose and stored at −80° C. Total protein concentration of the membrane was determined by BCA method from Pierce (Rockford, Ill.).
Human CXCR3 (N-Delta 4) Scintillation Proximity Assay (SPA)
For each assay point, 2 μg of membrane was preincubated for 1 hr with 300 μg wheat germ agglutinin (WGA) coated SPA beads (Amersham, Arlington Heights, Ill.) in the binding buffer (50 mM HEPES, 1 mM CaCl2, 5 mM MgCl2, 125 mM NaCl, 0.002% NaN3, 1.0% BSA) at room temperature. The beads were spun down, washed once, resuspended in the binding buffer and transferred to a 96-well Isoplate (Wallac, Gaithersburg, Md.). 25 pM of [^125I] IP-10 with tested compounds in a series of titration were added to start the reaction. After 3 hr reaction at room temperature, the amount of [^125I] IP-10 bound to the SPA beads was determined with a Wallac 1450 Microbeta counter.
Consider `CC[C@H]1CN(c2ncc(-c3ncc[nH]3)cc2Cl)CCN1C1CCN([C@H](C(=O)N(C)C)c2ccc(Cl)cc2)CC1` [Compound 150], for which the IC50 is greater than 0.1 µM. On the same count and under the same terms, under `CC[C@H]1CN(c2ncc(-c3nc4cc(F)ccc4[nH]3)cc2Cl)CCN1C1CCN(Cc2ccc(Cl)cc2F)CC1` [Compound 96] stands less than 0.025 µM; under `CC[C@H]1CN(c2ncc(-c3ncc[nH]3)cc2Cl)CCN1C1CCN(Cc2ccc(C(N)=O)cc2)CC1` [Compound 148], greater than 0.1 µM. Turning to `CC[C@H]1CN(c2ncc(-c3ncc[nH]3)cc2Cl)CCN1C1CCN(Cc2ccc(C(=O)O)cc2)CC1` [Compound 162], the IC50 was greater than 0.1 µM. Same read-out and setting: under `CC[C@H]1CN(c2ncc(C3=NCCN3)cc2Cl)CCN1C1CCN(Cc2ccc(C#CCOC)cc2)CC1` [Compound 34] stands less than 0.025 µM.

`CC[C@H]1CN(c2ncc(-c3ncc[nH]3)cc2Cl)CCN1C1CCN(C(CO)c2ccc(Cl)cc2)CC1` (some centres unmarked) [Compound 18] returned a concentration for half-maximal inhibition (IC50) of less than 0.025 µM. Still for that read-out and setting: under `CC[C@H]1CN(c2ncc(C3=NCCN3)cc2Cl)CCN1C1CCN(Cc2ccc(OC(F)(F)F)cc2)CC1` [Compound 12] stands less than 0.025 µM; under `CC[C@H]1CN(c2ncc(-c3nnc(C(C)(C)OC(C)=O)o3)cc2Cl)CCN1C1CCN(Cc2ccc(Cl)cc2F)CC1` [Compound 141], greater than 0.1 µM; under `CC[C@H]1CN(c2ncc(-c3ncc[nH]3)cc2Cl)CCN1C1CCN([C@@H](C(N)=O)c2ccc(Cl)cc2)CC1` [Compound 91], less than 0.025 µM.

Regarding `CC[C@H]1CN(c2ncc(-c3cnco3)cc2Cl)CCN1C1CCN(Cc2ccc(Cl)cc2)CC1` [Compound 108], the IC50 was 0.025 to 0.1 µM. On the same count and under the same terms, under `CC[C@H]1CN(c2ncc(C3=NCCCN3)cc2Cl)CCN1C1CCN(C(=O)c2ccc(Cl)cc2)CC1` [Compound 118] stands 0.025 to 0.1 µM; under `CC[C@H]1CN(c2ncc(-c3ncc[nH]3)cc2Cl)CCN1C1CCN(Cc2ccc(Cl)cc2)CC1` [Compound 1], less than 0.025 µM; under `CC[C@H]1CN(c2ncc(-c3nccn3C(c3ccccc3)(c3ccccc3)c3ccccc3)cc2Cl)CCN1C1CCN(Cc2ccc(Cl)cc2F)CC1` [Compound 145], greater than 0.1 µM. On the same count and under the same terms, under `CC[C@H]1CN(c2ncc(C3=NCCN3)cc2Cl)CCN1C1CCN(C(=O)c2ccc(C#N)cc2)CC1` [Compound 87] stands less than 0.025 µM. On the same count and under the same terms, under `CC[C@H]1CN(c2ncc(-c3ncc[nH]3)cc2Cl)CCN1C1CCN(Cc2ccc(OC(F)(F)F)cc2)CC1` [Compound 13] stands less than 0.025 µM; under `CC[C@H]1CN(c2ncc(C3=NCCN3)cc2Cl)CCN1C1CCN(Cc2ccc(C3CC3CO)cc2)CC1` (some centres unmarked) [Compound 153], greater than 0.1 µM. In turn, `CC[C@H]1CN(c2ncc(C3=NCCN3)cc2Cl)CCN1C1CCN(C(CO)c2ccc(Cl)cc2)CC1` (some centres unmarked) [Compound 15] came in with an IC50 of less than 0.025 µM.

`CC[C@H]1CN(c2ncc(-c3ncc[nH]3)cc2Cl)CCN1C1CCN(C(C(=O)Nc2ccccn2)c2ccc(Cl)cc2)CC1` (some centres unmarked) [Compound 116] gave a half-inhibitory concentration (IC50) of 0.025 to 0.1 µM. Turning to `CC[C@H]1CN(c2ncc(-c3ncc[nH]3)cc2Cl)CCN1C1CCN(Cc2ccc(-c3csnn3)cc2)CC1` [Compound 22], the half-inhibitory concentration (IC50) was less than 0.025 µM. The same measure, in the same setting: to `CC[C@H]1CN(c2ncc(-c3ncc[nH]3)cc2Cl)CCN1C1CCN(Cc2ccc(-n3cccn3)cc2)CC1` [Compound 19] belongs less than 0.025 µM; to `CCNc1nnc(-c2cnc(N3CCN(C4CCN(C(=O)c5ccc(Cl)nc5N)CC4)[C@@H](CC)C3)c(Cl)c2)o1` [Compound 73], less than 0.025 µM.

`CC[C@H]1CN(c2ncc(C3=NCCN3)cc2Cl)CCN1C1CCN([C@@H](CO)c2ccc(Cl)cc2)CC1` [Compound 7] had an IC50 of less than 0.025 µM.

In the case of `CC[C@H]1CN(c2ncc(-c3nc(C(O)C(F)(F)F)c[nH]3)cc2Cl)CCN1C1CCN(C(=O)c2ccc(Cl)cc2)CC1` (some centres unmarked) [Compound 125], the IC50 lay within 0.025 to 0.1 µM. In turn, `C[C@H]1CN(c2ncc(C3=NCCN3)cc2Cl)CCN1C1CCN(Cc2ccc(Cl)cc2)CC1` [Compound 65] came in with a 50% inhibitory concentration (IC50) of less than 0.025 µM. `CC[C@H]1CN(c2ncc(-c3nccn3C)cc2Cl)CCN1C1CCN(Cc2ccc(Cl)cc2F)CC1` [Compound 122]: the concentration for half-maximal inhibition (IC50) lay within 0.025 to 0.1 µM.

With `CC[C@H]1CN(c2ncc(-c3ncc[nH]3)cc2Cl)CCN1C1CCN(C(=O)c2ccc(Cl)nc2N)CC1` [Compound 46], the half-inhibitory concentration (IC50) is less than 0.025 µM.

`CC[C@H]1CN(c2ncc(C3=NC(C)CN3)cc2Cl)CCN1C1CCN(C(=O)c2ccc(Cl)cc2N)CC1` (some centres unmarked) [Compound 45] came in with a half-maximal inhibitory concentration (IC50) of less than 0.025 µM.

For the compound `CC[C@H]1CN(c2ncc(C3NC(=O)NC3=O)cc2Cl)CCN1C1CCN(Cc2ccc(Cl)cc2)CC1` (some centres unmarked) [Compound 119], the IC50 is 0.025 to 0.1 µM. On the same count and under the same terms, to `CC[C@H]1CN(c2ncc(C3=NCCN3C(=O)c3ccc(C#N)cc3)cc2Cl)CCN1C1CCN(C(=O)c2ccc(C#N)cc2)CC1` [Compound 161] belongs greater than 0.1 µM; to `CC[C@H]1CN(c2ncc(C3=NCCN3)cc2Cl)CCN1C1CCN(C(=O)c2ccc(Br)cc2)CC1` [Compound 56], less than 0.025 µM. Still for that read-out and setting: to `CC[C@H]1CN(c2ncc(-c3ncc[nH]3)cc2Cl)CCN1C1CCN(C(=O)c2ccc(-c3ccccc3)cc2)CC1` [Compound 132] belongs greater than 0.1 µM. Consider `CC[C@H]1CN(c2ncc(-c3nnc(CO)o3)cc2Cl)CCN1C1CCN(Cc2ccc(Cl)cc2F)CC1` [Compound 106], for which the IC50 was 0.025 to 0.1 µM. As to `CC[C@H]1CN(c2ncc(-c3ncc[nH]3)cc2Cl)CCN1C1CCN(Cc2ccc(Cl)cc2/C(N)=N/O)CC1` [Compound 6], the half-maximal inhibitory concentration (IC50) was less than 0.025 µM. Same read-out and setting: to `CC[C@H]1CN(c2ncc(C3=NCCN3)cc2Cl)CCN1C1CCN(Cc2ccc(Cl)cc2C(C)(C)O)CC1` [Compound 44] belongs less than 0.025 µM; to `CC[C@H]1CN(c2ncc(-c3ncc[nH]3)cc2Cl)CCN1C1CCN(C(=O)c2ccc(Cl)cc2N)CC1` [Compound 32], less than 0.025 µM. Compound `CC[C@H]1CN(c2ncc(-c3ncc[nH]3)cc2Cl)CCN1C1CCN(C(=O)c2ccc(C(C)=O)cc2)CC1` [Compound 111] returned an IC50 of 0.025 to 0.1 µM. In turn, `CC[C@H]1CN(c2ncc(-c3ncc[nH]3)cc2Cl)CCN1C1CCN(Cc2ccc3[nH]ccc3c2)CC1` [Compound 138] yielded a 50% inhibitory concentration (IC50) greater than 0.1 µM. In turn, `CC[C@H]1CN(c2ncc(-c3ncc[nH]3)cc2Cl)CCN1C1CCN(C(=O)c2ccc(Br)cc2)CC1` [Compound 41] registered an IC50 of less than 0.025 µM. Compound `CC[C@H]1CN(c2ncc(C3=NCCN3)cc2Cl)CCN1C1CCN(Cc2ccc(C3CC3C(C)(C)O)cc2)CC1` (some centres unmarked) [Compound 152] had an IC50 greater than 0.1 µM. Still for that read-out and setting: under `CC[C@H]1CN(c2ncc(-c3ncc[nH]3)cc2Cl)CCN1C1CCN(Cc2ccc(C#N)cc2)CC1` [Compound 17] stands less than 0.025 µM.

With `CC[C@H]1CN(c2c(F)cc(-c3ncc[nH]3)cc2C(F)(F)F)CCN1C1CCN(Cc2ccc(Cl)cc2F)CC1` [Compound 59], the concentration for half-maximal inhibition (IC50) was less than 0.025 µM. The same measure, in the same setting: under `CC[C@H]1CN(c2ncc(-c3ncc[nH]3)cc2Cl)CCN1C1CCN(Cc2ccc(C#CCN(C)C)cc2)CC1` [Compound 100] stands less than 0.025 µM. Same read-out and setting: to `CC[C@H]1CN(c2ncc(-c3ncc[nH]3)cc2Cl)CCN1C1(C)CCN(Cc2ccc(Cl)cc2C(=O)OC)CC1` [Compound 151] belongs greater than 0.1 µM; to `CC[C@H]1CN(c2ncc(-c3ncc[nH]3)cc2Cl)CCN1C1CCN(C(=O)c2ccc(C#CC(C)(C)O)cc2)CC1` [Compound 113], 0.025 to 0.1 µM.

For `CC[C@H]1CN(c2ncc(-c3ncc[nH]3)cc2Cl)CCN1C1CCN([C@H](CO)c2ccc(Cl)cc2)CC1` [Compound 90], the concentration for half-maximal inhibition (IC50) is less than 0.025 µM. The same measure, in the same setting: under `CC[C@H]1CN(c2ncc(C3=NCCN3)cc2Cl)CCN1C1CCN(Cc2ccc(Cl)cc2C#N)CC1` [Compound 51] stands less than 0.025 µM.

Still in this assay, the particulars now being: [125I] IP-10 displacement, Ba/F3-hCXCR3 (N-delta 4) membranes.
The compound `CC[C@H]1CN(c2ncc(-c3ncc[nH]3)cc2Cl)CCN1C1CCN(Cc2ccc(Cl)cc2)CC1` [Compound 1] returned an IC50 of 0.0002 µM.

Source of the values: US7417045B2, “Heterocyclic substituted pyridine or phenyl compounds with CXCR3 antagonist activity” (Schering Corporation, priority 2005, dated 2008).
